Consider 26 compounds from US20250388604A1, “Compounds and Their Use as PDE4 Activators” (Mironid Limited, priority 2022, published 2025).

The first experiment deals with m-IMCD3 cells. As to the kind of experiment: Inhibition of PGE2-stimulated in vitro cyst formation in m-IMCD3 cells. The experiment is classed as cell-based, mouse. To be noted: 3 μM; mean cyst area, 100% for (DMSO + PGE2) and 0% for DMSO control; 6 days of culture. The procedure: HEK 293 and MDCK cells (Public Health England, Cell Culture Collections) were maintained in Dulbecco's Modified Eagle's Medium (DMEM) supplemented with 10% (v/v) fetal bovine serum (FBS) (Seralab), 2 mM L-glutamine and 100 U/mL penicillin streptomycin cocktail (ThermoFisher); termed complete media. Clonal HEK 293 cell lines were maintained in complete media supplemented with 0.6 mg/ml G418 (Enzo Life Sciences). Mouse inner medullary collecting duct (m-IMCD3) cells [American Type Culture Collection (ATCC)] were maintained in media consisting of DMEM/Hams F-12 50/50 Mix (DMEM F12; Corning) supplemented with penicillin streptomycin cocktail (100 U/mL) and FBS (10% v/v) (DMEM F12-10% FBS).
The mouse Inner Medullary Collecting Duct cell line (m-IMCD3) spontaneously forms cystic spheroids in 3D culture with a Type 1 collagen/Matrigel extracellular matrix. This process can be stimulated with agents which raise intracellular cAMP and is used as an in vitro model for the formation of cystic structures in the kidneys of patients with ADPKD.
Rat Collagen I (Fisher Scientific) is prepared on ice by neutralising with 1M NaOH and diluting with a 2× volume of DMEM/F12+10% FBS. This is mixed 1:1.1 with ice cold Matrigel (Corning) for coating plates (coating mix), and 1:0.93 with Matrigel for cell plating (plating mix).
The assay is conducted in the wells of a 96-well plate culture dish using a total volume of 130 μL of collagen/Matrigel/DMEM F12-10% FBS suspension in growth media for each matrix plug per individual well. Initially, 30 μL of collagen/Matrigel/DMEM F12-10% FBS (coating mix) is added into the well of a 96 well plate and the collagen is set to a gel by incubating at 37° C. for at least 15 minutes. A second layer of 100 μL collagen/Matrigel suspension (plating mix) containing m-IMCD3 cells (2.75×10^6 m-IMCD3 cells per 96-well plate) is layered over the coating mix and the collagen/Matrigel/cell mix again set to a gel by incubating at 37° C. Cell cultures are maintained at 37° C. in an atmosphere of 5% CO2, 95% air.
Between 18 and 24 h after plating, test compound(s) as DMSO stock solutions [0.1% (v/v) final DMSO concentration] and PGE2 (100 nM final concentration) in DMEM F12-10% FBS are added in quadruplicate wells per condition. Media, together with the test compound and PGE2 are replenished after 2 or 3 days. After 6 days of culture z stack images of the wells are captured using the Nikon Eclipse Ti2-E microscope. Nikon General Analysis software is used to measure the following parameters in each well: the mean cyst area, the number of cysts, and the total cyst area.
PDE4 long form activators inhibited in vitro cyst formation in m-IMCD3 cells. Data are shown in Table 4 as mean cyst area (%), compared to 100% for (DMSO+PGE2) and 0% for DMSO control.
As for `CC(C(=O)N1CCc2nc(N3C4CCC3CNC4)sc2C1)C(C)(C)C` (single isomer, unassigned) [Example 158, 1-(2-(3,8-diazabicyclo[3.2.1]octan-8-yl)-6,7-dihydrothiazolo[5,4-c]pyridin-5(4H)-yl)-2,3,3-trimethylbutan-1-one], the “% Cyst area after incubation with 3 μM test compound” value was 7%.

The same experiment, now with this note: Mus musculus, mIMCD3, 144 h, 3 μM; mean cyst area, 100% for (DMSO + PGE2) and 0% for DMSO control; 6 days of culture; read-out: % Cyst area after incubation with 3 μM test compound.
`O=S(=O)(Cc1ccc(F)cc1)N1CCc2nc(N3CCNCC3)sc2C1` [Example 287, 5-((4-fluorobenzyl)sulfonyl)-2-(piperazin-1-yl)-4,5,6,7-tetrahydrothiazolo[5,4-c]pyridine]: the activity at 3 µM is -3%.

For the compound `O=C(c1ccc(C2CC2)cc1)N1CCc2nc(N3C4CCC3CNC4)sc2C1` [Example 228, (2-(3,8-diazabicyclo[3.2.1]octan-8-yl)-6,7-dihydrothiazolo[5,4-c]pyridin-5(4H)-yl)(4-cyclopropylphenyl)methanone], the activity at 3 µM is -6%.

On to `O=C(Oc1ccccc1)N1CCc2nc(N3C4CCC3CNC4)sc2C1` [Example 247, phenyl 2-(3,8-diazabicyclo[3.2.1]octan-8-yl)-6,7-dihydrothiazolo[5,4-c]pyridine-5(4H)-carboxylate], for which the activity at 3 µM stood at 18%.

Turning to `O=C(c1ccccc1C(F)F)N1CCc2nc(N3C4CCC3CNC4)sc2C1` [Example 218, (2-(3,8-diazabicyclo[3.2.1]octan-8-yl)-6,7-dihydrothiazolo[5,4-c]pyridin-5(4H)-yl)(2-(difluoromethyl)phenyl)methanone], the activity at 3 µM is 11%.

Consider `Cc1cc(F)ccc1C(=O)N1CCc2nc(N3C4CCC3CNC4)sc2C1` [Example 216, (2-(3,8-diazabicyclo[3.2.1]octan-8-yl)-6,7-dihydrothiazolo[5,4-c]pyridin-5(4H)-yl)(4-fluoro-2-methylphenyl)methanone], for which the activity at 3 µM was -3%.

On to `O=C(c1nc2ccccc2o1)N1CCc2nc(N3C4CCC3CNC4)sc2C1` [Example 190, (2-(3,8-diazabicyclo[3.2.1]octan-8-yl)-6,7-dihydrothiazolo[5,4-c]pyridin-5(4H)-yl)(benzo[d]oxazol-2-yl)methanone], for which the activity at 3 µM was 1%.

On to `CC1(C)CN(C(=O)c2ccc(F)nc2)Cc2sc(N3C4CCC3CNC4)nc21` [Example 264, (2-(3,8-diazabicyclo[3.2.1]octan-8-yl)-7,7-dimethyl-6,7-dihydrothiazolo[5,4-c]pyridin-5(4H)-yl)(6-fluoropyridin-3-yl)methanone], for which the activity at 3 µM was -1%.

For `O=C(N[C@H]1CCOc2ccccc21)N1CCc2nc(N3CCNCC3)sc2C1` [Example 296, (S)—N-(chroman-4-yl)-2-(piperazin-1-yl)-6,7-dihydrothiazolo[5,4-c]pyridine-5(4H)-carboxamide], the activity at 3 µM was 33%.

Turning to `O=C(c1cccc2cccnc12)N1CCc2nc(N3C4CCC3CNC4)sc2C1` [Example 237, (2-(3,8-diazabicyclo[3.2.1]octan-8-yl)-6,7-dihydrothiazolo[5,4-c]pyridin-5(4H)-yl)(quinolin-8-yl)methanone], the activity at 3 µM turned out to be 37%.

As for `O=C(c1cccc2c1OC(F)(F)O2)N1CCc2nc(N3C4CCC3CNC4)sc2C1` [Example 233, (2-(3,8-diazabicyclo[3.2.1]octan-8-yl)-6,7-dihydrothiazolo[5,4-c]pyridin-5(4H)-yl)(2,2-difluorobenzo[d][1,3]dioxol-4-yl)methanone], the activity at 3 µM was -2%.

With `COc1cccc(C#N)c1OCC(=O)N1CCc2nc(N3C4CCC3CNC4)sc2C1` [Example 168, 2-(2-(2-(3,8-diazabicyclo[3.2.1]octan-8-yl)-6,7-dihydrothiazolo[5,4-c]pyridin-5(4H)-yl)-2-oxoethoxy)-3-methoxybenzonitrile], the activity at 3 µM is -3%.

As to `CCN1CC2CCC(C1)N2c1nc2c(s1)CN(C(=O)N[C@@H]1CCOc3ccccc31)CC2` [Example 295, N—((R)-chroman-4-yl)-2-(3-ethyl-3,8-diazabicyclo[3.2.1]octan-8-yl)-6,7-dihydrothiazolo[5,4-c]pyridine-5(4H)-carboxamide], the activity at 3 µM is -4%.

As to `O=C(c1cccc2c1CCO2)N1CCc2nc(N3C4CCC3CNC4)sc2C1` [Example 236, (2-(3,8-diazabicyclo[3.2.1]octan-8-yl)-6,7-dihydrothiazolo[5,4-c]pyridin-5(4H)-yl)(2,3-dihydrobenzofuran-4-yl)methanone], the activity at 3 µM is 27%.

With `O=C(C1Cc2ccccc2CO1)N1CCc2nc(N3C4CCC3CNC4)sc2C1` (centres unmarked) [Example 183, (2-(3,8-diazabicyclo[3.2.1]octan-8-yl)-6,7-dihydrothiazolo[5,4-c]pyridin-5(4H)-yl)(isochroman-3-yl)methanone], the activity at 3 µM amounted to 0%.

Consider `O=C(CC1CCCC1)N1CCc2nc(N3CCNC[C@@H]3CO)sc2C1` [Example 275, (R)-2-cyclopentyl-1-(2-(2-(hydroxymethyl)piperazin-1-yl)-6,7-dihydrothiazolo[5,4-c]pyridin-5(4H)-yl)ethan-1-one], for which the activity at 3 µM stood at 19%.

For the compound `O=C(c1cccnc1Cl)N1CCc2nc(N3C4CCC3CNC4)sc2C1` [Example 224, (2-(3,8-diazabicyclo[3.2.1]octan-8-yl)-6,7-dihydrothiazolo[5,4-c]pyridin-5(4H)-yl)(2-chloropyridin-3-yl)methanone], the activity at 3 µM was 22%.

As for `COc1cc(C)ccc1C(=O)N1CCc2nc(N3C4CCC3CNC4)sc2C1` [Example 219, (2-(3,8-diazabicyclo[3.2.1]octan-8-yl)-6,7-dihydrothiazolo[5,4-c]pyridin-5(4H)-yl)(2-methoxy-4-methylphenyl)methanone], the activity at 3 µM amounted to 11%.

The experiment is the same for the next values; noted with them: Mus musculus, mIMCD3, 144 h, 10 μM; mean cyst area, 100% for (DMSO + PGE2) and 0% for DMSO control; 6 days of culture; read-out: % Cyst area after incubation with 10 μM test compound.
`O=C(NC1CCCCC1)N1CCc2nc(N3C4CCC3CNC4)sc2C1` [Example 52]: the activity at 10 µM is -6%.

For the compound `O=C(COc1ccc(F)cc1F)N1CCc2nc(N3C4CCC3CNC4)sc2C1` [Example 148, 1-(2-(3,8-diazabicyclo[3.2.1]octan-8-yl)-6,7-dihydrothiazolo[5,4-c]pyridin-5(4H)-yl)-2-(2,4-difluorophenoxy)ethan-1-one], the activity at 10 µM was 3%.

Take `O=C(Cc1cnccn1)N1CCc2nc(N3C4CCC3CNC4)sc2C1` [Example 136, 1-(2-(3,8-diazabicyclo[3.2.1]octan-8-yl)-6,7-dihydrothiazolo[5,4-c]pyridin-5(4H)-yl)-2-(pyrazin-2-yl)ethan-1-one]: the activity at 10 µM is 18%.

As to `CN1CC2CCC(C1)N2c1cc2n(n1)CCN(C(=O)CC1CCC(F)(F)CC1)C2` [Example 86, 2-(4,4-difluorocyclohexyl)-1-(2-(3-methyl-3,8-diazabicyclo[3.2.1]octan-8-yl)-6,7-dihydropyrazolo[1,5-a]pyrazin-5(4H)-yl)ethan-1-one], the activity at 10 µM was -1%.

As to `O=S(=O)(CC1CCCC1)N1CCc2nc(N3C4CCC3CNC4)sc2C1` [Example 107, 2-(3,8-diazabicyclo[3.2.1]octan-8-yl)-5-((cyclopentylmethyl)sulfonyl)-4,5,6,7-tetrahydrothiazolo[5,4-c]pyridine], the activity at 10 µM is -16%.

Turning to `COc1cc(F)ccc1CC(=O)N1CCc2nc(N3C4CCC3CNC4)sc2C1` [Example 140, 1-(2-(3,8-diazabicyclo[3.2.1]octan-8-yl)-6,7-dihydrothiazolo[5,4-c]pyridin-5(4H)-yl)-2-(4-fluoro-2-methoxyphenyl)ethan-1-one], the activity at 10 µM worked out at 0%.

As for `CN1CC2CCC(C1)N2c1nc2c(s1)CN(C(=O)NC1CCCC1)C2` [Example 82, N-cyclopentyl-2-(3-methyl-3,8-diazabicyclo[3.2.1]octan-8-yl)-4,6-dihydro-5H-pyrrolo[3,4-d]thiazole-5-carboxamide], the activity at 10 µM came to 2%.

With `CC(Oc1ccccc1)C(=O)N1CCc2nc(N3C4CCC3CNC4)sc2C1` (centres unmarked) [Example 23, 1-(2-(3,8-diazabicyclo[3.2.1]octan-8-yl)-6,7-dihydrothiazolo[5,4-c]pyridin-5(4H)-yl)-2-phenoxypropan-1-one], the activity at 10 µM is 0%.
